Experimental findings from paper PMC4579270, “Identification and Characterization of an Irreversible Inhibitor of CDK2” (Chemistry & Biology, 2015) are described below.

What all share (experiment): Dundee protein kinase screen
What all share (type): biochemical

For one experiment, the target named is CDK9-Cyclin T1 (Homo sapiens, UniProt P50750). The note with it: CDK9-Cyclin T1, 1µM; read-out: %Remaining activity at 1µM NU6300. As to the method:
(§1) Prior to determining its cellular activity, we carried out a screen to assess its selectivity against a panel of 131 protein kinases under conditions that would not distinguish between a reversible or irreversible mode of action. […] These 13 kinases and 29 additional kinases, selected for their known sensitivity to other inhibitors within the purine series, were then tested in a modified screening format in which the assay was repeated following a 4-hr pre-incubation (Table S3B). […] However, conformational flexibility around the active site may promote such an interaction with a residue from another part of the structure ([Martin et al., 2012]).
(§2) Table S3, Related to Figure 4. NCL-0006300 protein kinase selectivity. (A) NU6300 was tested at a single concentration of 1µM against 131 protein kinases present in a Dundee protein kinase screen (Bain et al., 2007). Values given are % activity remaining and are the average of duplicate measurements: 0-25% (red), 26-50% (yellow), 51-80% (black) and above 81% (green). The kinase domain sequences (as defined by UniProt) of […]
(§3) have a lysine residue at a position close to CDK2 Lys88 or Lys89. However, in the structure of tyrosine-protein kinase BTK (PDB ID: 3GEN) the residue equivalent to CDK2 Asp86 is Cys481 and therefore there is the potential for a covalent adduct to be formed through this side chain. Ephrin type-B receptor 3 (UniProt entry P54753) also encodes a cysteine residue (Cys717) that by sequence alignment would be predicted to be close to the CDK2 lysine pair. (B) Selected kinases were re-tested in the Dundee kinase screen against NU6300 at a single concentration of 0.5 µM both in the standard assay format and following a 4 hour pre-incubation in the presence of NU6300. Kinases which have very low activity after the 4 hour incubation so that results might not be wholly reliable are boxed in salmon. Kinases where the activity after a 4 hour pre-incubation is < 50% that in the standard assay format are highlighted in red.

The target in another experiment is DYRK3 (Homo sapiens, UniProt O43781). The note with it: DYRK3, 1µM; read-out: %Remaining activity at 1µM NU6300. As to the method:
as §1, §2, §3

Another experiment addresses EPH-B1 (Homo sapiens, UniProt P54762). The note with it: EPH-B1, 1µM; read-out: %Remaining activity at 1µM NU6300. As to the method:
as §1, §2, §3

A further experiment concerns the target HIPK1 (Homo sapiens, UniProt Q86Z02). The note with it: HIPK1, 1µM; read-out: %Remaining activity at 1µM NU6300. As to the method:
as §1, §2, §3

The target in the next experiment is NEK6 (Homo sapiens, UniProt Q9HC98). The note with it: NEK6, 1µM; read-out: %Remaining activity at 1µM NU6300. As for the experimental part:
as §1, §2, §3

In a further experiment the target is PKA (Homo sapiens, UniProt P17612). The note with it: read-out: %Remaining activity at 1µM NU6300. As for the experimental part:
as §1, §2, §3

The target of a further experiment is T1, TSSK1 (Homo sapiens, UniProt Q9BXA7).
T1 sequence (Q9BXA7 1-367): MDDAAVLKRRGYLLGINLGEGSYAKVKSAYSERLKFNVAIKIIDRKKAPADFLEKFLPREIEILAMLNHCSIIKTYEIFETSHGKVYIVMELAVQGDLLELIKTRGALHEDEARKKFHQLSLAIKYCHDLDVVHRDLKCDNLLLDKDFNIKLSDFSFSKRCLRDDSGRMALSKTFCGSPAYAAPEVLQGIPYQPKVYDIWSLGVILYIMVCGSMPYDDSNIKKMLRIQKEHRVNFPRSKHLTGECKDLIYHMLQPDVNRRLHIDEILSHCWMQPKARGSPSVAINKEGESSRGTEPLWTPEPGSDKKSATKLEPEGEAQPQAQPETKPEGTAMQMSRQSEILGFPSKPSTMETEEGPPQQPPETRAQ
The note with it: TSSK1, 1µM; read-out: %Remaining activity at 1µM NU6300. As for the experimental part:
as §1, §2, §3

CDK9-Cyclin T1, sequence (P50750 whole entry): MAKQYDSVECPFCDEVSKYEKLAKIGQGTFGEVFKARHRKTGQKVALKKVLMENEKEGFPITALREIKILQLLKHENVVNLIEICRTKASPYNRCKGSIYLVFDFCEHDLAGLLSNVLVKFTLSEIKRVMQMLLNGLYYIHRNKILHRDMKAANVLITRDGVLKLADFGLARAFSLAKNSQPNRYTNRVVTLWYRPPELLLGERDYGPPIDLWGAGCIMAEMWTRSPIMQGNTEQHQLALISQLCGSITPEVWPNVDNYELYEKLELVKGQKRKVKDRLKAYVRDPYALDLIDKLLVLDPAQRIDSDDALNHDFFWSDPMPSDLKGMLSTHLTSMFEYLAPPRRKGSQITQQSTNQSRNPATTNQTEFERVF
CDK9-Cyclin T1, sequence (O60563 whole entry partner): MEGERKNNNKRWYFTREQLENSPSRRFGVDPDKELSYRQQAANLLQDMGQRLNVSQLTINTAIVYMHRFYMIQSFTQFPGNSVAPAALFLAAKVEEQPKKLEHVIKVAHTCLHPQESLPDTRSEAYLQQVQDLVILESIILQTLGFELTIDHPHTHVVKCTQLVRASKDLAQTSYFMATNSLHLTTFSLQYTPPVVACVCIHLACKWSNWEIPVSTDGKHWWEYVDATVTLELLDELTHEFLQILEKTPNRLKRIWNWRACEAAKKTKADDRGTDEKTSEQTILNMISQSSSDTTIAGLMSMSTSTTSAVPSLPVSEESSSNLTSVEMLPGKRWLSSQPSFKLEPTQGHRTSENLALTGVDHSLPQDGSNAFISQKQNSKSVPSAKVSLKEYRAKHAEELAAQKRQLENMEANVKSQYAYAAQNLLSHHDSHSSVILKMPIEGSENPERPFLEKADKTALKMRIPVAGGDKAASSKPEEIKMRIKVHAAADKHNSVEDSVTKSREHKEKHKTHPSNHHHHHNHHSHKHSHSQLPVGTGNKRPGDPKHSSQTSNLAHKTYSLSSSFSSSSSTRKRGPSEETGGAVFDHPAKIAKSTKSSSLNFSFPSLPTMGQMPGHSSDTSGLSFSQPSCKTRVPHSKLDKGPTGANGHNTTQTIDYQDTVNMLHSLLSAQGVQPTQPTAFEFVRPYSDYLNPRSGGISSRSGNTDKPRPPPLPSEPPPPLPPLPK
EPH-B1, sequence (P54762 18-984): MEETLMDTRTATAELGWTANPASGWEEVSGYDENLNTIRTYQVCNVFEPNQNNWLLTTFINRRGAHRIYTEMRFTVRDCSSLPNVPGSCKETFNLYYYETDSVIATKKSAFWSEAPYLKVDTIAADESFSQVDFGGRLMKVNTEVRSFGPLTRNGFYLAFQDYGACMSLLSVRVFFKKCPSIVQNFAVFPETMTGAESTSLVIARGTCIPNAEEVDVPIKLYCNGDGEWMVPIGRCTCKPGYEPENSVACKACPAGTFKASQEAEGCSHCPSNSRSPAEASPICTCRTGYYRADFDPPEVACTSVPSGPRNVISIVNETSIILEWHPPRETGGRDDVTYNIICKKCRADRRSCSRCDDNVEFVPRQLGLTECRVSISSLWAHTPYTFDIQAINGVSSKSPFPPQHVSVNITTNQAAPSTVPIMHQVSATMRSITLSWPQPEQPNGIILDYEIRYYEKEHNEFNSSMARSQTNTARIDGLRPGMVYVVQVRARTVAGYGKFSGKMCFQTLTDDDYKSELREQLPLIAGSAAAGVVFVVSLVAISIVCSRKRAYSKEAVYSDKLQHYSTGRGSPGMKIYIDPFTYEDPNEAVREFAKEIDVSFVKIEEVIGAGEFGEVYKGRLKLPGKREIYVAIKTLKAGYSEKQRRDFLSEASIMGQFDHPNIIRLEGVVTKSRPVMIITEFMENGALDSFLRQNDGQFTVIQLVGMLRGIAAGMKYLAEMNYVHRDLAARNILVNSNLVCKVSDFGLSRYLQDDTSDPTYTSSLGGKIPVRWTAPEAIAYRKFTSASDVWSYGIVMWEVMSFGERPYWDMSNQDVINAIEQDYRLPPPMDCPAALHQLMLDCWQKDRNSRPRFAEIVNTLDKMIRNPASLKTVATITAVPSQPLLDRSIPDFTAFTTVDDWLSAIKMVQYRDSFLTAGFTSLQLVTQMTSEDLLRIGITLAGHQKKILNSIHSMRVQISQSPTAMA
DYRK3, sequence (O43781 whole entry): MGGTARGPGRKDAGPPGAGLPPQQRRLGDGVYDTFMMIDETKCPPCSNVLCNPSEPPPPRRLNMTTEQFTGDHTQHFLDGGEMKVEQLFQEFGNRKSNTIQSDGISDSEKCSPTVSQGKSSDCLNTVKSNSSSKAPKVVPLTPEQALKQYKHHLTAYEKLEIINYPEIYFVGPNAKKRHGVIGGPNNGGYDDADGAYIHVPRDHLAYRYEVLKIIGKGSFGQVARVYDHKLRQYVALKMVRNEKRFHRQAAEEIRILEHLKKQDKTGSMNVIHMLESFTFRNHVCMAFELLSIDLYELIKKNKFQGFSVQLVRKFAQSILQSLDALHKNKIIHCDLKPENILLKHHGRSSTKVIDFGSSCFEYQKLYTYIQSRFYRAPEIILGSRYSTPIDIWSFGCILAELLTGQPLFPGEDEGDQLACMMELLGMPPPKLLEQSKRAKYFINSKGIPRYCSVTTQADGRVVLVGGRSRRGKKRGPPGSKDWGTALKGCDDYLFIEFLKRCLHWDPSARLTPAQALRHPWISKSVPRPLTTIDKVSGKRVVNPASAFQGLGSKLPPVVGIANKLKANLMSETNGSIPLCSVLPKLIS
HIPK1, sequence (Q86Z02 whole entry): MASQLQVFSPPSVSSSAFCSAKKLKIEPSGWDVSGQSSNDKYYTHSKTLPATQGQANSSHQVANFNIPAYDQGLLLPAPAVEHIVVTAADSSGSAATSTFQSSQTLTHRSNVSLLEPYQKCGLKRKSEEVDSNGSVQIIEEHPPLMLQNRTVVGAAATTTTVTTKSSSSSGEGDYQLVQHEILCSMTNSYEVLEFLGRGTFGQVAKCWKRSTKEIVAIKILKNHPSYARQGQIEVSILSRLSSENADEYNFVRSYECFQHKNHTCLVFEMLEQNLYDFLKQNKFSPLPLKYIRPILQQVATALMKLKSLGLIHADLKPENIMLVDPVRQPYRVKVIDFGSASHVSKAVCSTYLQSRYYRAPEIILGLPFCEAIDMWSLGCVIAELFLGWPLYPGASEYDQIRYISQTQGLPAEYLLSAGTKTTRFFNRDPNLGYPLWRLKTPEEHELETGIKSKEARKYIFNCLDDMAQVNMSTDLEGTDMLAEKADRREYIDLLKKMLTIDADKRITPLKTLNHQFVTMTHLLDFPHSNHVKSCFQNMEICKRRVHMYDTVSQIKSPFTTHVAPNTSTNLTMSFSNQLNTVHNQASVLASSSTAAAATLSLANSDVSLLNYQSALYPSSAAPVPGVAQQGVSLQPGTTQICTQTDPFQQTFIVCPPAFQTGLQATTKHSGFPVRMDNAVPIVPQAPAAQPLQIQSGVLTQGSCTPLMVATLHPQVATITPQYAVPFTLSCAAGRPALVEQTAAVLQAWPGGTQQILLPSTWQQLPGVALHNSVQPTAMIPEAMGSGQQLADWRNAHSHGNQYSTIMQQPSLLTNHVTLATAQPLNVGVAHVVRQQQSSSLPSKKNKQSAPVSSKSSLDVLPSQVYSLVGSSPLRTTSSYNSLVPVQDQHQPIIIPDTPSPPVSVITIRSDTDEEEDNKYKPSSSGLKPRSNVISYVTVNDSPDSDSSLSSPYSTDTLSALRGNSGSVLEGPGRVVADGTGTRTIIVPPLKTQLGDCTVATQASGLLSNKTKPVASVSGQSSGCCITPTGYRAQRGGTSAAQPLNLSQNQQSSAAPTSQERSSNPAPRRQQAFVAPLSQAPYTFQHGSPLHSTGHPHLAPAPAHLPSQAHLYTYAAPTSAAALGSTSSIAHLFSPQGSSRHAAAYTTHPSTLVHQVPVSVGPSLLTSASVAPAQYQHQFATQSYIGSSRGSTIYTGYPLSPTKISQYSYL
NEK6, sequence (Q9HC98 whole entry): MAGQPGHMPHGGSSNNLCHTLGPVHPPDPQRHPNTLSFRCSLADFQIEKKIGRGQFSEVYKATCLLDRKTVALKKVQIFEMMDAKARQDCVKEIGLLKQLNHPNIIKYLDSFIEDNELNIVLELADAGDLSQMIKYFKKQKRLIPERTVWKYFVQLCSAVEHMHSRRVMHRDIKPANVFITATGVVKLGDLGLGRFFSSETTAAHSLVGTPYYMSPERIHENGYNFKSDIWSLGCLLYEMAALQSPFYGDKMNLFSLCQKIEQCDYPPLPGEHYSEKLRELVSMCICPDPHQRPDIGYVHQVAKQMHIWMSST

In the case of `C=CS(=O)(=O)c1ccc(Nc2nc(OCC3CCCCC3)c3nc[nH]c3n2)cc1` [NU6300, 6-(cyclohexylmethoxy)-N-(4-(vinylsulfonyl)phenyl)-9H-purin-2-amine], the remaining activity at 1 µM at CDK9-Cyclin T1 was determined as 87%; at DYRK3, 91%; at EPH-B1, 78%; on HIPK1, 93%; on NEK6, 70%; at PKA, 88%. On TSSK1, the remaining activity at 1 µM worked out at 26%.

One may read the remaining activity as the activity still measured, relative to the control.
